Data from article PMC11556721, “A novel esterase regulates Klebsiella pneumoniae hypermucoviscosity and virulence” (PLOS Pathogens, 2024).

Legend:
[1] = system: T1, rKpACE (KpACE, Klebsiella pneumoniae Acetylated CPS Esterase); experiment: acetylesterase assay, Michaelis-Menten fit; assay type: biochemical; settings: pH 7.4
T1 construct: signal peptide (1-21) removed; N-terminal 6xHis tag; pET-28a, E. coli BL21(DE3)

[2] = molecular target: recombinant KpACE (Klebsiella pneumoniae Acetylated CPS Esterase) (Klebsiella pneumoniae ATCC43816); experiment: SEC; Superdex 200; rKpACE peak at 14.38 mL (75.6 kDa); predicted monomer 43.1 kDa

Compound	Km [1] [µM]	stoichiometry N [2]
CC(=O)Oc1ccc2c(C)cc(=O)oc2c1 [4-MU-Ac, 4-methylumbelliferyl acetate]	160 ± 30	–
recombinant KpACE (Klebsiella pneumoniae Acetylated CPS Esterase) (enzyme)	–	2
